# From PubChem BioAssay AID179 (DTP/NCI, 2004)
# Activity calls are given as the source filed them.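 How the source made its calls: active means compounds giving half or more protection of infected cells from virus-caused growth loss, again on retest; inactive means the rest.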 Where a SMILES comes first, the peptide text is derived from it. [ ]: non-standard residue; d: D form. The star is where a group is joined. NMeAc5c = CNC1(C(=O)O)CCCC1; Cbz = O=C(OCc1ccccc1)*; Boc = CC(C)(C)OC(=O)*; OBn = c1ccc(CO*)cc1; tBu = CC(C)(C)*
# Tested on: CEM cells HIV-1 protection, formazan growth assay
# Assay: NCI AIDS Antiviral Assay
# Details: for IC50: measured here: growth of uninfected CEM cells
# Outline: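 Steps: treat uninfected and HIV-1-infected human CEM cells at five drug levels; quantify growth by soluble formazan; retest any compound reaching 50% protection; classify actives from the retest.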
Compound,EC50 [µM],IC50 [µM],outcome
O=C(Nc1ccc(S(=O)(=O)c2ccc(NS(=O)(=O)Cc3ccccc3[N+](=O)[O-])cc2)cc1)c1ccccc1SSc1ccccc1C(=O)Nc1ccc(S(=O)(=O)c2ccc(NS(=O)(=O)Cc3ccccc3[N+](=O)[O-])cc2)cc1,28.2,> 200,–
CC1C=C2c3ccccc3CC2C2C(=O)OC(=O)C12 (stereo unspecified),> 200,> 200,–
CCN(CC)CCOc1ccc(/C(C#N)=C/c2ccc(OCCN3CCCCC3)cc2)cc1,> 200,0.832,–
Cc1ccc(S(=O)(=O)N2CCCN(S(=O)(=O)c3ccc(C)cc3)CCSCCCSCC2)cc1,> 200,31.6,–
N#CN=C(N(Cc1ccccc1)Cc1ccccc1)N(Cc1ccccc1)Cc1ccccc1,> 39.8,> 39.8,–
CCOCCCCS(=O)(=O)O,> 200,> 200,–
COc1ccc(-c2oc(C=Nc3ccccc3)c([N+](=O)[O-])c2-c2ccc(OC)c(OC)c2)cc1OC,> 45.7,> 45.7,–
COC(=O)C1(CCSc2ccccc2)CCCC1=O (stereo unspecified),> 13.5,> 13.5,–
Cc1cc([C@H](C#N)c2nc3ccccc3[nH]2)nc(Cl)n1,> 200,22.4,–
CC1=CC2C(C=C1)S(=O)(=O)N1CC21c1ccccc1 (stereo unspecified),–,–,inactive
O=C(N=C1N(c2ccccc2)C(=O)C(=O)N1c1ccccc1)c1ccccc1,> 200,5.62,–
OC(CCN1CCCCCC1)(Cc1ccccc1)c1ccccc1 (stereo unspecified),> 200,81.3,–
COc1cc2c(cc1O)[C@H](C)C(c1ccccc1OC)O2 (stereo partly specified),> 66.1,3.98,–
COC1CC(O)C2OC(c3ccccc3)OCC2O1 (stereo unspecified),–,–,inactive
CC(C)[C@](O)(C(=O)OCC1=CCN2CC[C@@H](O)[C@@H]12)[C@H](C)O,> 417,> 417,–
COc1cc2cccc(N=Cc3c(Br)ccc(OC)c3OC(C)C)c2cc1OC,> 3.16,> 3.16,–
N/C(=N/N=C/C1CCCCC1)NO,–,–,inactive
CC1(C)O[C@@H]2[C@@H](COC(=O)c3ccccc3)C[C@@H](C#N)[C@@H]2O1,> 200,> 200,–
Cc1n[nH]c2ccc(Br)cc2c1=O,> 50.1,> 50.1,–
CCOC(=O)c1c(SCc2ccccc2)nc2c3ccccc3ccn12,> 151,> 151,–
Nc1[nH]c(=S)nc2snnc12,> 200,> 200,–
CC(=O)CC(C)=O.CC(=O)CC(C)=O.CC(=O)CC(C)=O.[Mn],> 200,25.7,–

Compound,EC50 [µM],IC50 [µM],outcome
O=C1CC2(CCN(Cc3ccccc3)CC2)CC(=O)N1,> 200,> 200,–
CCN(CC)/C(Sc1ccccc1)=C(\C(Cl)=C(Cl)Cl)[N+](=O)[O-],> 200,12.3,–
Cc1oc2nc(N(C)C)nc(NN)c2c1C,–,–,inactive
O=C(NCCCCNCCCNC(=O)c1ccccc1)c1ccccc1,> 200,> 200,–
Cn1c(=O)c2nc(NCCO)cnc2n(C)c1=O,> 200,85.1,–
CC(=O)Nc1ccc(/C=N\N2C(=O)c3ccccc3C2=O)cc1,> 61.7,> 61.7,–
O=C(O)CC(NC(=O)OCc1ccccc1)C(=O)O (stereo unspecified),> 200,> 200,–
CC12CCC[C@@](C)(C(=O)O)[C@H]1CCC1=CC3(CCC12)SCCS3 (stereo partly specified),> 355,57.5,–
CC(CC(=O)N(C)[C@H](C[C@@H](C)C(Cl)(Cl)Cl)c1nccs1)C(Cl)(Cl)Cl (stereo partly specified),–,–,inactive
O=C1COc2cc3c(cc2N1)SCCC(=O)N3,> 39.8,> 39.8,–
O=C(Cn1ccnc1[N+](=O)[O-])c1ccc(F)cc1,> 724,339,–
O=[N+]([O-])c1ccc(N=C/C=C/Nc2ccc([N+](=O)[O-])cc2)cc1,> 200,52.5,–
COc1ccc(/C=C/C(=O)c2ccccc(=O)c2O)cc1,> 63.1,3.39,–
CCCC[C@H]1C(=O)O[C@H](C)[C@H](NC(=O)c2cccc(NC=O)c2O)C(=O)O[C@@H](C)[C@@H]1OC(=O)CC(C)C,> 1,0.0389,–
O=[N+]([O-])c1ccc(S(=O)(=O)NN2CCOCC2)cc1,> 126,> 126,–
COC(=O)CCC(=O)c1ccc2c(c1)CC1(C2)Cc2ccc3c(c2C1)CCCC3=O (stereo unspecified),> 200,8.51,–
CC(C)NC(=O)OCCS(=O)c1c(Cl)c(Cl)nn1C (stereo unspecified),> 200,33.1,–
CC(C)C(OC(=O)c1ccc(NCc2cc(O)ccc2O)cc1)C(C)C,> 200,1.41,–
CCCCN[C@H]1C2C3CC4C5CC(C42)C1(C)C53 (stereo partly specified),> 933,380,–
CC1=C(C(=O)Nc2ccccc2C)C(c2ccco2)C(C(=O)Nc2ccccc2C)=C(C)N1C,> 21.9,> 21.9,–
O=C(O)C(=C/C=C/c1ccccc1)C(=O)O,–,–,inactive
CCc1cc2c(oc3c4ccccc4ccc23)c(=O)[nH]1,> 200,> 200,–

Compound,EC50 [µM],IC50 [µM],outcome
COc1cc(/C=C(\NC(=O)c2ccccc2)c2nc3ccc([N+](=O)[O-])cc3[nH]2)cc(OC)c1OC,–,–,inactive
COc1cccc(C2c3cc4c(cc3OC(NNc3ccccc3)C2C)OCO4)c1O (stereo unspecified),> 200,11.2,–
NC(C(=O)O)C(O)C(=O)O (stereo unspecified),–,–,inactive
Clc1cc(Cl)c(SSc2cc(Cl)c(Cl)cc2Cl)cc1Cl,> 200,> 200,–
CNC(=O)OCC1=CC(=O)C(OC)=CC1=O,> 200,10,–
Nc1nc(Cl)cc(NCC2(CO)CC(=O)C2)n1,> 200,> 200,–
Cc1nc2ccccc2c(=O)n1NC(=O)c1ccc(CS)cc1,–,–,inactive
CC1(C)CC(C)(C)C1=NNC(N)=O,> 200,> 200,–
O=C1Oc2ccccc2C(=O)/C1=C/N1C(=O)N/C(=C\c2ccccc2Br)C1=O,> 200,83.2,–
C(=C\c1cc(CCc2nc3ccccc3[nH]2)[nH]n1)/c1ccccc1,> 83.2,> 83.2,–
COC(=O)c1ccc2cc(O)ccc2c1,> 200,83.2,–
CC(C)=CCCC1(C)C=Cc2c(c(C)cc3c2[nH]c2ccccc23)O1 (stereo unspecified),> 21.9,12,–
O=C1OCCC[C@H]2O[C@@H](COCc3ccccc3)C[C@@H]12,> 200,> 200,–
CC(OC(C)(C)C)C(NC(=O)C(CCCCNC(=O)OC(C)(C)C)NC(=O)C(Cc1c[nH]c2ccccc12)NC(=O)OCc1ccccc1)C(=O)NC(Cc1ccccc1)C(=O)N(C)C1(C(=O)NC(Cc2ccccc2)C(=O)OCc2ccccc2)CCCC1 (stereo unspecified) (Cbz-WK(Boc)T(tBu)F[NMeAc5c]F-OBn; configuration not given here),> 50.1,38.9,–
COc1ccc(OC)c2c(=S)c3ccccc3[nH]c12,–,–,inactive
O=C(O)/C(Cl)=C(\Cl)C(=O)NC1C2CC3CC(C2)CC1C3 (stereo unspecified),–,–,inactive
Cc1nc2cc[nH]n2c(=O)c1CCc1ccccc1,> 200,151,–
COC1/C=C\OC2(C)Oc3c(C)c(O)c4c(c3C2=O)C(=O)C=C(NC(=O)/C(C)=C\C=C/C(C)C(O)C(C)C(O)C(C)C(OC(C)=O)C1C)C4=O (stereo unspecified),> 200,2.69,–
Clc1ccccc1C(=Nc1ccccc1)C(=Nc1ccccc1)c1ccccc1Cl,> 1.74,> 1.74,–
OC1CSc2nc3ccccc3n2C1 (stereo unspecified),> 200,> 200,–
Cc1ccc(NC(=O)C(=O)C(C(=O)c2ccc3ccccc3c2)C2OC(=O)c3ccccc32)c(C)c1 (stereo unspecified),> 75.9,21.4,–
CCOC(=O)NC1=NCCS1,–,–,inactive

Compound,EC50 [µM],IC50 [µM],outcome
Cc1csc(NNC(N)=O)n1,> 200,> 200,–
O=C(O)Cc1cc(=O)oc2cc(O)ccc12,> 1120,> 1120,–
Cn1nc(-c2ccccc2)c2c(/C=C/c3ccccc3)onc2c1=O,–,–,inactive
C[n+]1ccccc1-c1nc(-c2cccc[n+]2C)nc(-c2cccc[n+]2C)n1,> 200,> 200,–
COc1ccccc1/C=c1\[nH]c(=O)/c(=C/c2ccccc2OC)[nH]c1=O,> 28.2,> 28.2,–
CNCS(=O)(=O)O,> 200,97.7,–
CCn1c2c(c3ccccc31)[C@@H](c1ccc(Cl)cc1)CC1C(=O)N(c3ccccc3)C(=O)C21 (stereo partly specified),> 11.5,> 11.5,–
O=Nc1c(O)ccc2ccccc12.O=Nc1c(O)ccc2ccccc12.O=Nc1c([O-])ccc2ccccc12.[Fe+3],> 129,95.5,–
C=CC[C@]12CC[C@H](O)[C@@]1(C)CCC(=O)/C2=N\N,–,–,inactive
O=C(/C=C/c1ccc(O)c(F)c1)CC(=O)/C=C/c1ccc(O)c(F)c1,> 200,12.6,–
Nc1ccc2cc(S(=O)(=O)O)cc(O)c2c1N=Nc1ccc(-c2ccc(N=Nc3c(S(=O)(=O)O)cc4cc(S(=O)(=O)O)c(N=Nc5ccc([N+](=O)[O-])cc5)c(N)c4c3O)cc2)cc1,–,–,inactive
c1ccc2c(c1)c1c(n2CCOCCN2CCCC2)CCCC1,> 200,9.55,–
N#Cc1c(NCCc2ccc(F)cc2)c2ccccc2n2c1nc1ccccc12,11,> 200,–
CCOP(=O)(OCC)/C(F)=C/c1ccccc1,> 200,> 200,–
CCCCCCCCCCCCCCCC=C(c1cc(Br)c(O)c(C(=O)O)c1)c1cc(Br)c(O)c(C(=O)O)c1,> 112,53.7,–
COc1ccccc1C1C2=C(COC2=O)Oc2cc3c(cc21)OCO3 (stereo unspecified),> 200,2.19,–
COc1ccc(N)c(N2C(=O)c3ccccc3C2=O)c1,> 200,> 200,–
S=C1SCCS1,> 200,> 200,–
NC(=O)c1c(NC=O)ncn1C1OCC(O)C(O)C1O (stereo unspecified),> 200,> 200,–
COc1cc(C2c3cc4c(cc3OC(Nc3ccccc3)C2C)OCO4)cc(OC)c1OC (stereo unspecified),> 200,0.275,–
Oc1ccc(Cl)cc1CN1CCN(Cc2cc(Cl)ccc2O)C1,> 200,1.38,–
CC(=O)OCC1OC(Nc2[nH]c(=O)[nH]c(=O)c2N=O)C(OC(C)=O)C(OC(C)=O)C1OC(C)=O (stereo unspecified),> 200,> 200,–
